Legend:
COVID-19 infection [1] = test: Phase IIa study: throat-family symptom score; type: in vivo
SARS-CoV-1 = conditions: mice; reduced from 100%; concentration similar to clinically achievable concentration in humans; cited from earlier work
COVID-19 infection [2] = test: Phase IIa study: COVID-19 PRO daily self-score, symptom severity score (items 1-33, 0-132); type: in vivo

Question: With `CN(C)C(=O)COC(=O)Cc1ccc(OC(=O)c2ccc(NC(=N)N)cc2)cc1` [camostat, 4-[[4-[(Aminoiminomethyl)amino]benzoyl]oxy]benzeneacetic acid 2-(dimethylamino)-2-oxoethyl ester] as the compound, how does the “throat-family symptom score, Fitzmaurice model, Camostat” value (COVID-19 infection [1]; day 0) read?
Answer: The value was 2.3 (0.3).

Question: And the “throat-family symptom score, Fitzmaurice model, Camostat” value (COVID-19 infection [1]; day 1)?
Answer: Its value is 2 (0.3).

Question: What about the “throat-family symptom score, Fitzmaurice model, Effect (placebo vs camostat)” value (COVID-19 infection [1]; day 1) of the same compound?
Answer: The value was −0.7 (0.4).

Question: What about the “throat-family symptom score, Fitzmaurice model, Camostat” value (COVID-19 infection [1]; day 2) of the same compound?
Answer: The value was 1.7 (0.4).

Question: And the “throat-family symptom score, Fitzmaurice model, Effect (placebo vs camostat)” value (COVID-19 infection [1]; day 2)?
Answer: Its value is −0.8 (0.4).

Question: And the “throat-family symptom score, Fitzmaurice model, Camostat” value (COVID-19 infection [1]; day 3)?
Answer: Its value is 1.6 (0.3).

Question: And the “throat-family symptom score, Fitzmaurice model, Effect (placebo vs camostat)” value (COVID-19 infection [1]; day 3)?
Answer: The value was −0.7 (0.4).

Question: What about the “throat-family symptom score, Fitzmaurice model, Camostat” value (COVID-19 infection [1]; day 4) of the same compound?
Answer: The value was 1.7 (0.3).

Question: What about the “throat-family symptom score, Fitzmaurice model, Effect (placebo vs camostat)” value (COVID-19 infection [1]; day 4) of the same compound?
Answer: The value was −0.9 (0.4).

Question: And the “throat-family symptom score, Fitzmaurice model, Camostat” value (COVID-19 infection [1]; day 5)?
Answer: The value was 1.1 (0.3).

Question: And the “throat-family symptom score, Fitzmaurice model, Effect (placebo vs camostat)” value (COVID-19 infection [1]; day 5)?
Answer: The value was −0.2 (0.4).

Question: What about the “throat-family symptom score, Fitzmaurice model, Camostat” value (COVID-19 infection [1]; day 6) of the same compound?
Answer: The value was 0.9 (0.4).

Question: What about the “throat-family symptom score, Fitzmaurice model, Effect (placebo vs camostat)” value (COVID-19 infection [1]; day 6) of the same compound?
Answer: The value was −0.1 (0.4).

Question: And the “throat-family symptom score, Fitzmaurice model, Camostat” value (COVID-19 infection [1]; day 7)?
Answer: The value was 0.7 (0.4).

Question: What about the “throat-family symptom score, Fitzmaurice model, Effect (placebo vs camostat)” value (COVID-19 infection [1]; day 7) of the same compound?
Answer: Its value is −0.3 (0.4).

Question: And the “throat-family symptom score, Fitzmaurice model, Camostat” value (COVID-19 infection [1]; day 8)?
Answer: Its value is 0.6 (0.4).

Question: And the “throat-family symptom score, Fitzmaurice model, Effect (placebo vs camostat)” value (COVID-19 infection [1]; day 8)?
Answer: Its value is −0.2 (0.4).

Question: What about the “throat-family symptom score, Fitzmaurice model, Camostat” value (COVID-19 infection [1]; day 9) of the same compound?
Answer: The value was 0.4 (0.4).

Question: And the “throat-family symptom score, Fitzmaurice model, Effect (placebo vs camostat)” value (COVID-19 infection [1]; day 9)?
Answer: Its value is −0.1 (0.4).

Question: And the “throat-family symptom score, Fitzmaurice model, Camostat” value (COVID-19 infection [1]; day 10)?
Answer: Its value is 0.5 (0.4).

Question: And the “throat-family symptom score, Fitzmaurice model, Effect (placebo vs camostat)” value (COVID-19 infection [1]; day 10)?
Answer: Its value is −0.4 (0.4).

Question: And the “throat-family symptom score, Fitzmaurice model, Camostat” value (COVID-19 infection [1]; day 11)?
Answer: The value was 0.6 (0.4).

Question: And the “throat-family symptom score, Fitzmaurice model, Effect (placebo vs camostat)” value (COVID-19 infection [1]; day 11)?
Answer: The value was −0.4 (0.4).

Question: What about the “throat-family symptom score, Fitzmaurice model, Camostat” value (COVID-19 infection [1]; day 12) of the same compound?
Answer: Its value is 0.5 (0.4).

Question: And the “throat-family symptom score, Fitzmaurice model, Effect (placebo vs camostat)” value (COVID-19 infection [1]; day 12)?
Answer: The value was −0.4 (0.4).

Question: What about the “throat-family symptom score, Fitzmaurice model, Camostat” value (COVID-19 infection [1]; day 13) of the same compound?
Answer: Its value is 0.5 (0.4).

Question: And the “throat-family symptom score, Fitzmaurice model, Effect (placebo vs camostat)” value (COVID-19 infection [1]; day 13)?
Answer: Its value is −0.4 (0.5).

Question: And the “throat-family symptom score, Fitzmaurice model, Camostat” value (COVID-19 infection [1]; day 14)?
Answer: The value was 0.5 (0.4).

Question: And the “throat-family symptom score, Fitzmaurice model, Effect (placebo vs camostat)” value (COVID-19 infection [1]; day 14)?
Answer: The value was −0.5 (0.5).

Question: What about the “mortality following SARS-CoV-1 infection” value (SARS-CoV-1) of the same compound?
Answer: Its value is 30-35%.

Question: What about the “acceleration of COVID-19 symptom resolution” value (COVID-19 infection [2]; COVID-19 PRO self-score, vs placebo) of the same compound?
Answer: Its value is “up to 5 days”.

Question: What about the “COVID-19 symptom severity score raw Mean” value (COVID-19 infection [2]; day 0) of the same compound?
Answer: Its value is 34.9.

Question: And the “symptom score, Fitzmaurice mixed effects model, A: Camostat arm” value (“symptom score … Camostat arm” below) (COVID-19 infection [2]; day 0)?
Answer: Its value is 31.81 (2.17).

Question: What about the “symptom score, Fitzmaurice mixed effects model, B − A (placebo − camostat)” value (from here on “symptom score … (placebo − camostat)”) (COVID-19 infection [2]; day 0) of the same compound?
Answer: Its value is 0.

Question: And the “symptom severity score, Negative binomial model, A: Camostat arm” value (COVID-19 infection [2]; day 0)?
Answer: The value was 31.81 (2.56).

Question: What about the “symptom severity score, Negative binomial model, B − A” value (COVID-19 infection [2]; day 0) of the same compound?
Answer: The value was 0.

Question: What about the “COVID-19 symptom severity score raw Mean” value (COVID-19 infection [2]; day 1) of the same compound?
Answer: The value was 30.4.

Question: What about the “symptom score … Camostat arm” value (COVID-19 infection [2]; day 1) of the same compound?
Answer: The value was 27.95 (2.59).

Question: What about the “symptom score … (placebo − camostat)” value (COVID-19 infection [2]; day 1) of the same compound?
Answer: Its value is −0.73 (2.76).

Question: What about the “symptom severity score, ANCOVA linear mixed model, A: Camostat arm” value (COVID-19 infection [2]; day 1) of the same compound?
Answer: Its value is −2.93 (2.11).

Question: What about the “symptom severity score, ANCOVA linear mixed model, B − A (placebo − camostat)” value (from here on “symptom severity score … (placebo − camostat)”) (COVID-19 infection [2]; day 1) of the same compound?
Answer: Its value is −1.83 (2.99).

Question: And the “symptom severity score, Negative binomial model, A: Camostat arm” value (COVID-19 infection [2]; day 1)?
Answer: The value was 28.22 (3.06).

Question: What about the “symptom severity score, Negative binomial model, B − A” value (COVID-19 infection [2]; day 1) of the same compound?
Answer: Its value is 0.95 (0.1).

Question: What about the “COVID-19 symptom severity score raw Mean” value (COVID-19 infection [2]; day 2) of the same compound?
Answer: The value was 29.7.

Question: And the “symptom score … Camostat arm” value (COVID-19 infection [2]; day 2)?
Answer: Its value is 26.89 (2.63).

Question: And the “symptom score … (placebo − camostat)” value (COVID-19 infection [2]; day 2)?
Answer: Its value is −3.09 (2.8).

Question: And the “symptom severity score, ANCOVA linear mixed model, A: Camostat arm” value (COVID-19 infection [2]; day 2)?
Answer: The value was −3.96 (2.16).

Question: What about the “symptom severity score … (placebo − camostat)” value (COVID-19 infection [2]; day 2) of the same compound?
Answer: Its value is −4.22 (3.02).

Question: What about the “symptom severity score, Negative binomial model, A: Camostat arm” value (COVID-19 infection [2]; day 2) of the same compound?
Answer: Its value is 27.28 (3.05).

Question: And the “symptom severity score, Negative binomial model, B − A” value (COVID-19 infection [2]; day 2)?
Answer: Its value is 0.85 (0.1).

Question: What about the “COVID-19 symptom severity score raw Mean” value (COVID-19 infection [2]; day 3) of the same compound?
Answer: Its value is 24.1.

Question: And the “symptom score … Camostat arm” value (COVID-19 infection [2]; day 3)?
Answer: The value was 22.97 (2.6).

Question: And the “symptom score … (placebo − camostat)” value (COVID-19 infection [2]; day 3)?
Answer: The value was −0.36 (2.79).

Question: What about the “symptom severity score, ANCOVA linear mixed model, A: Camostat arm” value (COVID-19 infection [2]; day 3) of the same compound?
Answer: The value was −8.01 (2.13).

Question: And the “symptom severity score … (placebo − camostat)” value (COVID-19 infection [2]; day 3)?
Answer: Its value is −1.34 (3.01).

Question: What about the “symptom severity score, Negative binomial model, A: Camostat arm” value (COVID-19 infection [2]; day 3) of the same compound?
Answer: The value was 23.35 (3.02).

Question: And the “symptom severity score, Negative binomial model, B − A” value (COVID-19 infection [2]; day 3)?
Answer: The value was 0.96 (0.13).

Question: What about the “COVID-19 symptom severity score raw Mean” value (COVID-19 infection [2]; day 4) of the same compound?
Answer: The value was 20.8.

Question: And the “symptom score … Camostat arm” value (COVID-19 infection [2]; day 4)?
Answer: Its value is 19.69 (2.6).

Question: And the “symptom score … (placebo − camostat)” value (COVID-19 infection [2]; day 4)?
Answer: The value was 0.89 (2.8).

Question: What about the “symptom severity score, ANCOVA linear mixed model, A: Camostat arm” value (COVID-19 infection [2]; day 4) of the same compound?
Answer: The value was −11.29 (2.13).

Question: What about the “symptom severity score … (placebo − camostat)” value (COVID-19 infection [2]; day 4) of the same compound?
Answer: The value was −0.1 (3.02).

Question: And the “symptom severity score, Negative binomial model, A: Camostat arm” value (COVID-19 infection [2]; day 4)?
Answer: The value was 20.17 (2.89).

Question: And the “symptom severity score, Negative binomial model, B − A” value (COVID-19 infection [2]; day 4)?
Answer: Its value is 1 (0.17).

Question: What about the “COVID-19 symptom severity score raw Mean” value (COVID-19 infection [2]; day 5) of the same compound?
Answer: The value was 17.7.

Question: What about the “symptom score … Camostat arm” value (COVID-19 infection [2]; day 5) of the same compound?
Answer: The value was 16.57 (2.6).

Question: And the “symptom score … (placebo − camostat)” value (COVID-19 infection [2]; day 5)?
Answer: The value was 5.84 (2.79).

Question: And the “symptom severity score, ANCOVA linear mixed model, A: Camostat arm” value (COVID-19 infection [2]; day 5)?
Answer: The value was −14.41 (2.13).

Question: And the “symptom severity score … (placebo − camostat)” value (COVID-19 infection [2]; day 5)?
Answer: The value was 4.84 (3.01).

Question: What about the “symptom severity score, Negative binomial model, A: Camostat arm” value (COVID-19 infection [2]; day 5) of the same compound?
Answer: Its value is 17.14 (2.63).

Question: What about the “symptom severity score, Negative binomial model, B − A” value (COVID-19 infection [2]; day 5) of the same compound?
Answer: Its value is 1.27 (0.24).

Question: And the “COVID-19 symptom severity score raw Mean” value (COVID-19 infection [2]; day 6)?
Answer: The value was 14.1.

Question: What about the “symptom score … Camostat arm” value (COVID-19 infection [2]; day 6) of the same compound?
Answer: The value was 12.53 (2.62).

Question: And the “symptom score … (placebo − camostat)” value (COVID-19 infection [2]; day 6)?
Answer: The value was 6.9 (2.81).

Question: What about the “symptom severity score, ANCOVA linear mixed model, A: Camostat arm” value (COVID-19 infection [2]; day 6) of the same compound?
Answer: Its value is −18.43 (2.15).

Question: And the “symptom severity score … (placebo − camostat)” value (COVID-19 infection [2]; day 6)?
Answer: The value was 5.89 (3.02).

Question: And the “symptom severity score, Negative binomial model, A: Camostat arm” value (COVID-19 infection [2]; day 6)?
Answer: The value was 13.4 (2.45).

Question: What about the “symptom severity score, Negative binomial model, B − A” value (COVID-19 infection [2]; day 6) of the same compound?
Answer: Its value is 1.38 (0.29).

Question: What about the “COVID-19 symptom severity score raw Mean” value (COVID-19 infection [2]; day 7) of the same compound?
Answer: Its value is 12.6.

Question: What about the “symptom score … Camostat arm” value (COVID-19 infection [2]; day 7) of the same compound?
Answer: The value was 11.37 (2.67).

Question: What about the “symptom score … (placebo − camostat)” value (COVID-19 infection [2]; day 7) of the same compound?
Answer: The value was 4.68 (2.84).

Question: What about the “symptom severity score, ANCOVA linear mixed model, A: Camostat arm” value (COVID-19 infection [2]; day 7) of the same compound?
Answer: The value was −19.64 (2.2).

— patent publication US20230226005A1, “Methods of Treating, Ameliorating, Shortening Duration, and/or Reversing Symptoms and/or Complications of a Coronavirus Infection” (Yale University, priority 2020, published 2023)
